In EPA's ToxValDB 9.5 (doi:10.2903/j.efsa.2009.189r):

Experiments:
Rattus norvegicus = conditions: for LD50: acute, oral, mortality; for NOEL: chronic
Chrysoperla externa = experiment: LR50; higher = less toxic; conditions: not reported; mortality
Mus musculus = conditions: acute; oral; mortality
Canidae = conditions: chronic; duration: 1 years; oral; Dog Other; organ weight
Folsomia candida = conditions: chronic/long-term
Pimephales promelas = conditions: chronic/long-term; duration: 359 days; mortality
Anas platyrhynchos = conditions: acute; oral; unspecified; mortality
Apis mellifera = conditions: acute; duration: 48 hours; oral; unspecified; mortality
Tagia sp. = conditions: acute; duration: 14 days; mortality
Colinus virginianus = conditions: for NOEC: reproduction developmental
Lepomis macrochirus = conditions: acute; duration: 96 hours; mortality

Compound | LD50 (Rattus norvegicus) [mg/kg-day] | LR50 (Chrysoperla externa) [g/ha] | LD50 (Mus musculus) [mg/kg-day] | NOEL (Rattus norvegicus; F) [mg/kg-day] | NOEL (Rattus norvegicus; M) [mg/kg-day] | NOAEL (Canidae) [mg/kg-day] | NOEC (Folsomia candida) [mg/kg] | NOEC (Pimephales promelas) [mg/L] | LD50 (Anas platyrhynchos) [mg/kg] | LD50 (Apis mellifera) [µg/piece] | LC50 (Tagia sp.) [mg/kg] | LC50 (Colinus virginianus; acute, oral, diet, mortality) [mg/kg-day] | LD50 (Colinus virginianus; acute, oral, mortality) [mg/kg] | NOEC (Colinus virginianus) [mg/kg-day] | NOEC (Colinus virginianus; duration: 90 days) [mg/kg-day] | LC50 (Lepomis macrochirus) [µg/mL]
NC(=O)c1c(F)cccc1F [Benzamide, 2,6-difluoro-] | 2060 |  |  |  |  |  |  |  |  |  |  |  |  |  |  | 
O=C(NC(=O)c1c(F)cccc1F)Nc1cc(Cl)c(OC(F)(F)C(F)C(F)(F)F)cc1Cl (configuration not stated) [Lufenuron] | > 2000 | 0.4 | > 2000 | 10.9 | 8.3 | 1.5 | 0.2 | 0.02 | 2000 | > 197 | > 1000 | 966 | 2000 | 19.7 | 20000 | > 29
